Reference: patent US20250313535A1, “ALPHA 4 BETA 7 INTEGRIN MODULATORS AND USES THEREOF” (DICE MOLECULES SV, INC., priority 2022, published 2025)

What was measured:
Assay type in all cases: cell-based
[1] = target: T1, α4β7 integrin (Homo sapiens (Human), UniProt P13612+P26010); test: Integrin Adhesion Assay: Protocol 1 (MAdCAM-coated plate, RPMI-8866 cells, CellTiter GLO readout)
Method: α4β7 and α4β1 inhibition was evaluated in vitro using at least one of the following procedures:
Integrin Adhesion Assay: Protocol 1
MAdCAM (R&D Systems, 0.1 ug) was diluted in 50 μL PBS, added to each well of an opaque ELISA plate (Thermo), and incubated overnight at 4° C. Coated plates were washed once with PBS and then blocked with 200 μL of assay buffer (10 mM HEPES, 150 mM NaCl, 1 mM MnCl2, 0.1 mM CaCl2), 1% BSA) for 1 hour at 37° C. and 5% CO2. After incubation, buffer was aspirated from the plates and 50 μL of fresh assay buffer is added. Compounds were added by a compouns dispenser (Tecan) and DMSO concentration was normalized to 1% across each plate. 50 μL of RPMI-8866 cells (2×10^6 per mL) were added to each well and the plates were incubated for 1 hour at 37° C. and 5% CO2. After incubation, plates were allowed to cool to RT for 10 minutes before being washed four times in assay buffer by an automated plate washer (BioTek). After washing, 100 μL of a 1:1 mixture of assay buffer and CellTiter GLO 2.0 reagent (Promega) were added to each well. Plates were mixed for 2 minutes at 1000 rpm and then allowed to incubate an additional 10 minutes before reading out luminescence on a Tecan Spark plate reader. Raw data was converted to percent inhibition based on DMSO only and control compound wells, and curves were analyzed by 4-parameter fit within Dotmatics software.

[2] = target: T1, α4β7 integrin; test: Integrin Adhesion Assay: Protocol 4 (MAdCAM-coated plate, RPMI-8866 cells with stable LOF mutation of the ITGB1 gene); settings: Protocol 4; RPMI-8866 cells with LOF mutation of ITGB1, MAdCAM; read-out: Mean IC50 α4β7 KO
How it was run: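 RPMI-8866 cells with CRISPR/Cas9 knockout of ITGB1 (2×10^6/mL) were added to MAdCAM-coated wells with compound (1% DMSO) in HEPES/NaCl buffer with 1 mM MnCl2, 0.1 mM CaCl2 and 1% BSA, then incubated 1 h at 37 °C. After four washes, adherent cells were quantified by CellTiter-Glo luminescence. Percent inhibition versus DMSO and control compound was fitted to 4-parameter curves.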

[3] = target: α4β1 integrin (Homo sapiens (Human), UniProt P05556+P13612); test: Integrin Adhesion Assay: Protocol 5 (VCAM-coated plate, RPMI-8866 cells with stable LOF mutation of the ITGB7 gene); settings: Protocol 5; RPMI-8866 cells with LOF mutation of ITGB7, VCAM; read-out: Mean IC50 α4β1 KO
Chain of α4β1 integrin (P13612 34-1032): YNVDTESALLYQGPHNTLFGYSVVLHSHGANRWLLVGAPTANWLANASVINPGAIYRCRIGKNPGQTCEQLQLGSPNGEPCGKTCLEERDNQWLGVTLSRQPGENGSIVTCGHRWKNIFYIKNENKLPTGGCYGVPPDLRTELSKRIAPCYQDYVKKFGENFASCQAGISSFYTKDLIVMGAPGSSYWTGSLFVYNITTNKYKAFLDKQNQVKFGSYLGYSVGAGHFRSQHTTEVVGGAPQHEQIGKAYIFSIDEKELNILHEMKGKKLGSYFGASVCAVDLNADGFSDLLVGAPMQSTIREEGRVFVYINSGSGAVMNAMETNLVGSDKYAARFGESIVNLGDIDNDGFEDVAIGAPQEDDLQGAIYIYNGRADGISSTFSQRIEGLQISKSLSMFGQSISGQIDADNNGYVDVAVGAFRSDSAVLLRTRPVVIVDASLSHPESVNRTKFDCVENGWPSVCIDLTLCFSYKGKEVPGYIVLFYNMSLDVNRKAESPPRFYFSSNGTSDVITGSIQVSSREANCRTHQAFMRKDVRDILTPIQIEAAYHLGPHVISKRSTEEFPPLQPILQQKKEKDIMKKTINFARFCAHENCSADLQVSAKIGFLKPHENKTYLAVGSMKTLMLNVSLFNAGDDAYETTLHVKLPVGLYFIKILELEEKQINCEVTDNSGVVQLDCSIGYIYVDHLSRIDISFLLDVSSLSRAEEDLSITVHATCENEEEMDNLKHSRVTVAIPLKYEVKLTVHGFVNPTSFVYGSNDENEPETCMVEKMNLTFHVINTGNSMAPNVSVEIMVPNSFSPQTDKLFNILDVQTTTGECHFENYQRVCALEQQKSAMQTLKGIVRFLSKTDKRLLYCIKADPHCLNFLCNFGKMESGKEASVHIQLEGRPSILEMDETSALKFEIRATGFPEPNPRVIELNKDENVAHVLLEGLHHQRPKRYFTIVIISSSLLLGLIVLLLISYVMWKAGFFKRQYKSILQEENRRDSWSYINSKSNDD
Chain of α4β1 integrin (P05556 21-798): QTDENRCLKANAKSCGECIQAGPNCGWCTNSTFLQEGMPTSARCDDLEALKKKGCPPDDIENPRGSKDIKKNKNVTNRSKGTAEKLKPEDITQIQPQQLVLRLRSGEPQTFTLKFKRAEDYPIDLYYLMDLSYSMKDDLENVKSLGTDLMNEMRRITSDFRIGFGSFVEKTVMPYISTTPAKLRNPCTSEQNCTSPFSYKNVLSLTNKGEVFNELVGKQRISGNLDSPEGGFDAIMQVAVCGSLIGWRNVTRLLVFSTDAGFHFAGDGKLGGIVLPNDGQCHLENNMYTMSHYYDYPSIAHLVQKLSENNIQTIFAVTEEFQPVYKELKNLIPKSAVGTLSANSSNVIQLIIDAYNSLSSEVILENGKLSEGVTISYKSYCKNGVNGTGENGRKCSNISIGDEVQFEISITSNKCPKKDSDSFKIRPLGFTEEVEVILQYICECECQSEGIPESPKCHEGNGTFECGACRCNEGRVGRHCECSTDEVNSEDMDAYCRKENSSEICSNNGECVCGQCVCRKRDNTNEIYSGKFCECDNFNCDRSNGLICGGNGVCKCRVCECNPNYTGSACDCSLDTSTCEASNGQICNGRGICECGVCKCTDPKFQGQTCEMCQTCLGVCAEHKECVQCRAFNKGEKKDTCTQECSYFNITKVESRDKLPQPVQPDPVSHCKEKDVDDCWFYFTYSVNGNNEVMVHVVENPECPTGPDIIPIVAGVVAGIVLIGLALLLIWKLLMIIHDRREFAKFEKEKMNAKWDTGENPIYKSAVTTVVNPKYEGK
How it was run: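 RPMI-8866 B cells with CRISPR/Cas9 ITGB7 knockout (clonal, verified by flow cytometry) adhered to VCAM-coated wells for 1 h at 37° C in HEPES/NaCl buffer with 1 mM MnCl2, 0.1 mM CaCl2, 1% BSA, 1% DMSO. Bound cells quantified by CellTiter-Glo luminescence after washing; % inhibition versus DMSO and control, 4-parameter fit.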

[4] = integrin adhesion assay, determined by at least one of the assays described (protocol not specified)

T1 sequence (P13612 34-1032): as the sequence (P13612 34-1032) above
T1 sequence (P26010 20-798): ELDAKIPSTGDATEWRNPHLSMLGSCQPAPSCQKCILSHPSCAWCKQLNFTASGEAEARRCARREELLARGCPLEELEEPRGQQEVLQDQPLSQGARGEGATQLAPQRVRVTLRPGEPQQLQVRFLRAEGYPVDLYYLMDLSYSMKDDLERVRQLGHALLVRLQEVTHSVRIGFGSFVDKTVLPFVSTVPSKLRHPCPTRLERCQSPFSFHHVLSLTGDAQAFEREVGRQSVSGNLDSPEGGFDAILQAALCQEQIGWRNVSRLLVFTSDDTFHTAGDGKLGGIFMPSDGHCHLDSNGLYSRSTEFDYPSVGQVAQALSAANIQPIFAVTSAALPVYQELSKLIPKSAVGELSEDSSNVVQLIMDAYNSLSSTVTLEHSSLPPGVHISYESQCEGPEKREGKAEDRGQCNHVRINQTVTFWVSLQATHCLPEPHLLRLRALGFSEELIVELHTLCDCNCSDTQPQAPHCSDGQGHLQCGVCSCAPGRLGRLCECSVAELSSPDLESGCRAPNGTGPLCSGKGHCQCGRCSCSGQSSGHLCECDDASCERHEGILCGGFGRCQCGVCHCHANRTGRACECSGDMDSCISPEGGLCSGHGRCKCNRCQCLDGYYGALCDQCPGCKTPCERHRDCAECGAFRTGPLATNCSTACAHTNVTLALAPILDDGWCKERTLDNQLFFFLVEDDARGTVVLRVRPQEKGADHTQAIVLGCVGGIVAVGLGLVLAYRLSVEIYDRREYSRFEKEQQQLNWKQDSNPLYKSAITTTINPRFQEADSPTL

Structure (SMILES) | IC50 [1, 4] [nM] | IC50 [1] [nM] | IC50 [2] [nM] | IC50 [3] [nM]
CC1(C)NC(=O)c2c(-c3cccc4c(C[C@H](NC(=O)c5c(F)cccc5F)C(=O)O)cccc34)cccc21 [Compound 5] | 10 to 100 | – | – | –
Cn1ccc(=O)n(-c2cccc3c(C[C@H](NC(=O)C4(C(F)(F)F)CCCCC4)C(=O)O)cccc23)c1=O [Compound 13] | 10 to 100 | – | – | –
Cn1ccc(=O)n(-c2cccc3c(C[C@H](NC(=O)c4c(F)ccc(C#N)c4F)C(=O)O)cccc23)c1=O [Compound 32] | 10 to 100 | – | – | –
Cn1ccc(=O)n(-c2cccc3c(C[C@H](NC(=O)[C@@H]4CCCN4S(=O)(=O)c4ccccc4)C(=O)O)cccc23)c1=O [Compound 109] | 100 to 1000 | – | – | –
Cn1ccc(=O)n(-c2cccc3c(C[C@H](NC(=O)C4(C)CCCN(CC(F)(F)F)C4)C(=O)O)cccc23)c1=O (stereo partly drawn) [Compound 121] | > 1000 | – | – | –
Cc1nn(CC(F)(F)F)c(C)c1C(=O)N[C@@H](Cc1cccc2c(-n3c(=O)ccn(C)c3=O)cccc12)C(=O)O [Compound 122] | 10 to 100 | – | – | –
Cc1nn(C2CCOCC2)c(C)c1C(=O)N[C@@H](Cc1cccc2c(-n3c(=O)ccn(C)c3=O)cccc12)C(=O)O [Compound 123] | 10 to 100 | – | – | –
Cc1nccc(O)c1C(=O)N[C@@H](Cc1cccc2c(-n3c(=O)ccn(C)c3=O)cccc12)C(=O)O [Compound 125] | > 1000 | – | – | –
Cn1ccc(=O)n(-c2cccc3c(C[C@H](NC(=O)c4c(F)ccc(NS(=O)(=O)C5CC5)c4F)C(=O)O)cccc23)c1=O [Compound 134] | < 10 | – | – | –
C=CCc1cn(C)c(=O)n(-c2cccc3c(C[C@H](NC(=O)c4c(F)cccc4F)C(=O)O)cccc23)c1=O [Compound 136] | 10 to 100 | – | – | –
Cn1ccc(C(F)(F)F)c(-c2cncc3c(C[C@H](NC(=O)c4c(F)cccc4F)C(=O)O)cccc23)c1=O [Compound 211] | 10 to 100 | – | – | –
Cn1ccc(C(F)(F)F)c(-c2ccnc3c(C[C@H](NC(=O)c4c(F)cccc4F)C(=O)O)cccc23)c1=O [Compound 212] | 100 to 1000 | – | – | –
Cc1cccc(C)c1-c1cc(C(=O)N[C@@H](Cc2cccc3c(-c4c(C(F)(F)F)c5ccccc5n(C)c4=O)cccc23)C(=O)O)c(F)c(C(F)(F)F)c1 [Compound 303] | – | > 1000 | – | –
Cc1cccc(C)c1-c1cc(F)c(C(=O)N[C@@H](Cc2cccc3c(-c4c(C(F)(F)F)c5ccccc5n(C)c4=O)cccc23)C(=O)O)c(F)c1 [Compound 304] | – | > 1000 | – | –
Cc1cccc(F)c1C(=O)N[C@@H](Cc1cccc2c(-c3ncccc3CN3CCCCC3)cccc12)C(=O)O [Compound 1021] | – | – | 10 to 100 | > 1000
COc1cc(CN2CCCCC2)cc(C(F)(F)F)c1-c1cccc2c(C[C@H](NC(=O)c3c(C)cccc3F)C(=O)O)cccc12 [Compound 1023] | – | – | < 10 | 100 to 1000
COc1cccc(CN2CCC(F)CC2)c1-c1cccc2c(C[C@H](NC(=O)c3c(C)cccc3F)C(=O)O)cccc12 [Compound 1024] | – | – | 10 to 100 | > 1000
COc1cc(C(F)(F)F)c(CN2CCCCC2)cc1-c1cccc2c(C[C@H](NC(=O)c3c(C)cccc3F)C(=O)O)cccc12 [Compound 1025] | – | – | 10 to 100 | > 1000
COc1cccc(CN2CCC(C(F)(F)F)CC2)c1-c1cccc2c(C[C@H](NC(=O)c3c(C)cccc3F)C(=O)O)cccc12 [Compound 1026] | – | – | 10 to 100 | > 1000
COc1cccc(CN2CCC(C(C)(C)C)CC2)c1-c1cccc2c(C[C@H](NC(=O)c3c(C)cccc3F)C(=O)O)cccc12 [Compound 1027] | – | – | < 10 | 100 to 1000

Structure (SMILES) | IC50 [1, 4] [nM] | IC50 [1] [nM] | IC50 [2] [nM] | IC50 [3] [nM]
COc1cccc(CN2CC3CCC(C2)O3)c1-c1cccc2c(C[C@H](NC(=O)c3c(C)cccc3F)C(=O)O)cccc12 [Compound 1028] | – | – | 10 to 100 | > 1000
CC(C)c1cccc(F)c1C(=O)N[C@@H](Cc1cccc2c(-c3c(C(F)(F)F)c4cc(CN5CCCCC5)ccc4n(C)c3=O)cccc12)C(=O)O [Compound 1029] | – | – | < 10 | 10 to 100
Cc1cccc(F)c1C(=O)N[C@@H](Cc1cccc2c(-c3c(C(F)(F)F)c4cc(CN5CCCCC5)ccc4n(C)c3=O)cccc12)C(=O)O [Compound 1030] | – | – | < 10 | 100 to 1000
COc1cccc(CCN2CCC(C)(C)CC2)c1-c1cccc2c(C[C@H](NC(=O)c3c(C)cccc3F)C(=O)O)cccc12 [Compound 1033] | – | – | < 10 | 100 to 1000
COc1cccc(CCN2CCC(F)(F)CC2)c1-c1cccc2c(C[C@H](NC(=O)c3c(C)cccc3F)C(=O)O)cccc12 [Compound 1034] | – | – | 10 to 100 | > 1000
COc1cccc(CCN2CCC(F)CC2)c1-c1cccc2c(C[C@H](NC(=O)c3c(C)cccc3F)C(=O)O)cccc12 [Compound 1035] | – | – | 10 to 100 | > 1000
COc1cccc(CCN2CCC[C@@H](F)C2)c1-c1cccc2c(C[C@H](NC(=O)c3c(C)cccc3F)C(=O)O)cccc12 [Compound 1036] | – | – | < 10 | > 1000
COc1cccc(CCN2CCC[C@H](F)C2)c1-c1cccc2c(C[C@H](NC(=O)c3c(C)cccc3F)C(=O)O)cccc12 [Compound 1037] | – | – | < 10 | > 1000
COc1ccc(CN(C)C)c(Cl)c1-c1cccc2c(C[C@H](NC(=O)c3c(C)cccc3F)C(=O)O)cccc12 [Compound 1038] | – | – | < 10 | 100 to 1000
COc1cnc(CN2CCC3(CCCCC3)CC2)c(OC)c1-c1cccc2c(C[C@H](NC(=O)c3c(C)cccc3F)C(=O)O)cccc12 [Compound 1039] | – | – | < 10 | > 1000
COCc1ccc2c(c1)c(C(F)(F)F)c(-c1cccc3c(CC(NC(=O)c4c(F)cccc4F)C(=O)O)cccc13)c(=O)n2C (stereo not drawn) [Compound 1041] | – | – | 100 to 1000 | > 1000
CN(C)CCc1cccc2c(-c3cccc4c(C[C@H](NC(=O)C5(C(F)(F)F)CCN(CC(F)(F)F)CC5)C(=O)O)cccc34)nccc12 [Compound 1042] | – | – | < 10 | 100 to 1000
Cn1c(=O)c(-c2cccc3c(C[C@H](NC(=O)c4c(F)cccc4F)C(=O)O)cccc23)c(C(F)(F)F)c2cc(CO)ccc21 [Compound 1043] | – | – | 10 to 100 | > 1000
CCc1c(CN(C)C)ccc(OC)c1-c1cccc2c(C[C@H](NC(=O)c3c(C)cccc3F)C(=O)O)cccc12 [Compound 1044] | – | – | < 10 | 100 to 1000
COc1ccc(C2(N(C)C)CC2)c(OC)c1-c1cccc2c(C[C@H](NC(=O)c3c(C)cccc3F)C(=O)O)cccc12 [Compound 1045] | – | – | < 10 | 100 to 1000
Cn1c(=O)c(-c2cccc3c(C[C@H](NC(=O)c4c(F)cccc4F)C(=O)O)cccc23)c(C(F)(F)F)c2cc(C3CCCO3)ccc21 (stereo partly drawn) [Compound 1046] | – | – | 100 to 1000 | > 1000
Cn1c(=O)c(-c2cccc3c(C[C@H](NC(=O)C4(C(F)(F)F)CCCN(CC5COC5)C4)C(=O)O)cccc23)c(C(F)(F)F)c2ccccc21 (stereo partly drawn) [Compound 1049] | – | – | 100 to 1000 | > 1000
Cn1c(=O)c(-c2cccc3c(C[C@H](NC(=O)C4(C)CCCN(C5COC5)CC4)C(=O)O)cccc23)c(C(F)(F)F)c2ccccc21 (stereo partly drawn) [Compound 1050] | – | – | 10 to 100 | > 1000
Cn1c(=O)c(-c2cccc3c(C[C@H](NC(=O)c4c(F)cccc4F)C(=O)O)cccc23)c(C(F)(F)F)c2cc(CN)ccc21 [Compound 1051] | – | – | < 10 | 100 to 1000
Cc1cccc(F)c1C(=O)N[C@@H](Cc1cccc2c(-c3c(C(F)(F)F)c4cc(CCCN(C)C)ccc4n(C)c3=O)cccc12)C(=O)O [Compound 1053] | – | – | < 10 | 100 to 1000
